Laboratory results taken from patent publication US7759459B2, “Fluorescent assays for protein kinases” (Albert Einstein College of Medicine of Yeshiva University, priority 2003, dated 2010).

The molecules below were run on protein kinase C (assay: Screen of fluorophore-peptide library for fluorescence change in the presence of PKC and ATP). Conditions: Table 3 library.
Assay type: biochemical
Description: Fluorescent PKC assay-Fluorescence assays were performed in triplicate at 30° C. and initiated by addition of ATP to a 100 μL cuvette containing a 50 μL solution of PKC and peptide substrate 2. Final conditions: 62.5 mM HEPES pH 7.4, 3 mM MgCl2, 0.3 mM CaCl2, 0.1 mM EGTA, 1 mM DTT, 0.5 μg/mL phosphatidylserine, 0.1 μg/mL diacylglycerol, 1 mM ATP, and 13 nM PKC. After the addition of ATP, the solution was gently mixed and the time-dependent change in fluorescent intensity (excitation: 520 nm, emission: […]) continuously monitored with a Photon Technology QM-1 spectrofluorimeter.
The peptide H2N-Ser-Phe-Arg-Arg-Arg-Arg-Lys-amide (1) (SEQ ID NO:2) was prepared using an Fmoc-based protocol, spatially segregated, and the free N-terminal amine subsequently modified with an array of fluorophore-containing carboxylic acids (I), aromatic aldehydes (II), and electron deficient aryl halides (III). […] This spatially segregated fluorophore-substituted peptide-based library contains a total of 415 distinct chemical entities (Table 3) and was screened for changes in fluorescence intensity in the presence of PKC and ATP under activating conditions. […] The obvious explanation is that phosphorylation of the peptide fails to induce the desired change in photophysical properties of the appended fluorophore. However, it is also possible that introduction of fluorophores, at various sites along the peptide framework, interferes with PKC-catalyzed phosphorylation. The latter possibility is unlikely, particularly for simple N-monosubstituted peptides, since PKC will phosphorylate peptides containing a wide variety of structurally diverse functionality attached at and/or near the phosphorylatable serine moiety.^24 Nevertheless, a few representative members of the library were evaluated in depth (Table 1). […]. One explanation for the poor fluorescence response of these particular peptides to PKC/ATP could be that these peptides serve as poor PKC substrates. This possibility was addressed by obtaining the PKCα-catalyzed Km and Vmax values using the [γ-^32P]ATP radioactive method.^25 As is clear from Table 1, all five peptides are reasonably effective substrates for PKCα.
Table 3. Structures of 415 compounds tested. The % change observed in fluorescence intensity upon phosphorylation of the compound by protein kinase C is shown in the right column. […] The compound labeled as compound 21 in Table 3 is the same as compound 2 in Example I, which is also shown in Scheme 2.

% change observed in fluorescence intensity upon phosphorylation of the compound by protein kinase C [%]	SMILES
<10	N=C(N)NC(NC(=O)C(NC(=N)N)NC(=O)C(NC(=N)N)NC(=O)C(NC(=N)N)NC(=O)C(NC(=O)c1ccc2c3c4c(ccc13)C=CCC4=CC2)NC(=O)C(O)Nc1ccc([N+](=O)[O-])c2nonc12)C(N)=O (stereo not shown) [Compound 73]
<10	N=C(N)NC(NC(=O)C(NC(=N)N)NC(=O)C(NC(=N)N)NC(=O)C(NC(=N)N)NC(=O)C(NC(=O)C(O)Nc1ccc(N)cc1)c1ccccc1)C(=O)NC(N)C(N)=O (stereo not shown) [Compound 76]
<10	CN(C)c1cccc2c(S(=O)(=O)NC(=N)NC(O)C(=O)NC(C(=O)NC(NC(=N)N)C(=O)NC(NC(=N)N)C(=O)NC(NC(=N)N)C(=O)NC(NC(=N)N)C(=O)NC(N)C(N)=O)c3ccccc3)cccc12 (stereo not shown) [Compound 85]
<10	N#CC1=c2cc3ccccc3cc2=CC1C(=N)NC(O)C(=O)NC(C(=O)NC(NC(=N)N)C(=O)NC(NC(=N)N)C(=O)NC(NC(=N)N)C(=O)NC(NC(=N)N)C(=O)NC(N)C(N)=O)c1ccccc1 (stereo not shown) [Compound 86]
<10	N=C(N)NC(NC(=O)C(NC(=N)N)NC(=O)C(NC(=N)N)NC(=O)C(NC(=N)N)NC(=O)C(NC(=O)C(O)NC(=O)C(CO)C1C=c2cc3ccccc3cc2=C1NN)c1ccccc1)C(=O)NC(N)C(N)=O (stereo not shown) [Compound 88]

Further lines, the molecule ahead of its results:

SMILES	% change observed in fluorescence intensity upon phosphorylation of the compound by protein kinase C [%]
N=C(N)NC(NC(=O)C(NC(=N)N)NC(=O)C(NC(=N)N)NC(=O)C(NC(=N)N)NC(=O)C(NC(=O)C(O)/N=C/c1cc([N+](=O)[O-])cc([N+](=O)[O-])c1O)c1ccccc1)C(=O)NC(N)C(N)=O (stereo not shown) [Compound 55]	<10
N=C(N)NC(NC(=O)C(NC(=N)N)NC(=O)C(NC(=N)N)NC(=O)C(NC(=N)N)NC(=O)C(NC(=O)Cc1cc(=O)oc2cc(O)ccc12)NC(=O)C(O)Nc1ccc([N+](=O)[O-])c2nonc12)C(N)=O (stereo not shown) [Compound 75]	<10
N=C(N)NC(NC(=O)C(NC(=N)N)NC(=O)C(NC(=N)N)NC(=O)C(NC(=N)N)NC(=O)C(NC(=O)C(O)N=C1N=c2c(c3ccccc3c3ccccc23)=N1)c1ccccc1)C(=O)NC(N)C(N)=O (stereo not shown) [Compound 77]	<10
N=C(N)NC(NC(=O)C(NC(=N)N)NC(=O)C(NC(=N)N)NC(=O)C(NC(=N)N)NC(=O)C(NC(=O)C(O)N1C=C(c2ccccc2)C(=O)C1(O)c1ccccc1C(=O)O)c1ccccc1)C(=O)NC(N)C(N)=O (stereo not shown) [Compound 78]	<10
CCCCCC(=O)NCCCCC(CNS(=O)(=O)c1cccc2c(N(C)C)cccc12)NC(O)C(=O)NC(C(=O)NC(NC(=N)N)C(=O)NC(NC(=N)N)C(=O)NC(NC(=N)N)C(=O)NC(NC(=N)N)C(=O)NC(N)C(N)=O)c1ccccc1 (stereo not shown) [Compound 81]	<10
CCCCCCCCCC(=O)NCCCCC(CNS(=O)(=O)c1cccc2c(N(C)C)cccc12)NC(O)C(=O)NC(C(=O)NC(NC(=N)N)C(=O)NC(NC(=N)N)C(=O)NC(NC(=N)N)C(=O)NC(NC(=N)N)C(=O)NC(N)C(N)=O)c1ccccc1 (stereo not shown) [Compound 82]	<10
N=C(N)NC(NC(=O)C(NC(=N)N)NC(=O)C(NC(=N)N)NC(=O)C(NC(=N)N)NC(=O)C(NC(=O)C(O)NC(=N)Nc1ccc(NOO)c2nonc12)c1ccccc1)C(=O)NC(N)C(N)=O (stereo not shown) [Compound 87]	<10
N=C(N)NC1=c2cc3ccccc3cc2=CC1C(CO)C(=O)NC(O)C(=O)NC(C(=O)NC(NC(=N)N)C(=O)NC(NC(=N)N)C(=O)NC(NC(=N)N)C(=O)NC(NC(=N)N)C(=O)NC(N)C(N)=O)c1ccccc1 (stereo not shown) [Compound 89]	<10
